Laboratory results: patent US20260265694A1, “USE OF A VITISIN COMPOUND FOR THE PRODUCTION OF HEMATOPOIETIC CELLS” (ETABLISSEMENT FRANCAIS DU SANG, priority 2022, published 2026)

Tested on: SP cells (CD34+DCVlow) isolated from peripheral blood CD34+ cells
Assay: ERYTHRO 1 PROTOCOL on sorted SP cells
Type: cell-based, human
Conditions: SPs, 10 μM, as early as D7, FIG. 4B
Procedure: SP cells are identifiable by virtue of their property of expelling certain dyes such as Hoescht or Dye Cycle Violet (DCV)). This expulsion takes place by means of […] ATP Binding Cassette (ABCG2) pumps (Brunet de la Grange et al., 2013). To identify SP cells within previously isolated CD34^+ cells, they are incubated with a DCV dye (5 μM) in DMEM^+ medium (Dulbecco's Modified Eagle's Medium (DMEM), 2% FCS, 1% HEPES) for 2 h at 37° C. and in the dark. After incubation, all manipulations up to final cell sorting are performed on ice and in PBS^+ medium (PBS, 2% FCS), a glucose- and calcium-depleted medium which stops the expulsion pumps. […] CD34^+ cells having a low fluorescence intensity for the DCV marker (CD34^+ SP cells) are analyzed (UV 350 nm or violet 405 nm), sorted and recovered using an ARIA cell sorter (Becton Dickinson). […]
In order to test the effect of vitisin B in this context, the culturing is performed in the absence and presence of vitisin B: • CTRL condition: Absence of vitisin B throughout the entire protocol. • Test condition: Presence of vitisin B at 5, 10, 15, 20 or 30 μM for the entire duration of the protocol (phase 1+phase 2). During the culture protocol, the differentiation product is analyzed by quantifying proliferation (counting) and analyzing erythrocyte differentiation markers by means of flow cytometry, using the markers CD71 and CD235a. c. […]

SMILES: Oc1ccc(C2Oc3ccc(/C=C/c4cc(O)cc5c4[C@H](c4cc(O)cc(O)c4)[C@@H](c4ccc(O)cc4)O5)cc3C2c2cc(O)cc3c2C(c2cc(O)cc(O)c2)C(c2ccc(O)cc2)O3)cc1 (stereo in doubt) [vitisin B, 5-[(2R,2'S,3R,3'S)-5-[(1E)-2-[(2S,3S)-3-(3,5-Dihydroxyphenyl)-2,3-dihydro-6-hydroxy-2-(4-hydroxyphenyl)-4-benzofuranyl]ethenyl]-2,2′,3,3′-tetrahydro-6′-hydroxy-2,2′-bis(4-hydroxyphenyl)[3,4′-bibenzofuran]-3′-yl]-1,3-benzenediol]
- reduction relative to the control in CD71 membrane expression: up to 40%
